Test results: patent US8569447B2, “Cell-permeable peptide inhibitors of the JNK signal transduction pathway” (Xigen SA, priority 2003, dated 2013)
Non-standard residues stand in square brackets, D forms with d. Residues, ends and D or L forms follow the SMILES beside them.

Assays:
βTC-3 cell cultures = test: Cellular import of fluorescein-labeled peptides; type: cell-based; settings: 1 μM, βTC-3 cells
Procedure: The ability of the L- and D-enantiomeric forms of TAT, TAT-IB1 and TAT-IB2 peptides (“TAT-IB peptides”) to enter cells were evaluated.
Labeled peptides (1 μM) were added to βTC-3 cell cultures, which were maintained as described in Example 3. At predetermined times, cells were washed with PBS and fixed for five minutes in ice-cold methanol-acetone (1:1) before being examined under a fluorescence microscope. Fluorescein-labeled BSA (1 μM, 12 moles/mole BSA) was used as a control.

JNK = settings: JBDs of IB1 and IB2; cited from earlier work
[1] = Rotarod test of motor coordination; type: in vivo, mice; settings: for motor coordination (rotarod), overall: doses of Table 2: D-JNKI i.p. and icv, MK-801 1 mg/Kg i.p.
Procedure: Typically, the high toxicity of other neuroprotective compounds has severely limited their clinical use. (See Gladstone et al., Stroke, 33:2123-36 (2002), incorporated by reference in its entirety). The ability of mice to maintain themselves on horizontal turning rotarod was used as criterion for possible side effects of different doses of D-JNKI and of a therapeutic dose of MK-801 (1 mg/Kg, a standard therapeutic dose). […] (11 and 110 mg/Kg) and icv injections of D-JNKI (2 μl containing 15.7 ng or 157 ng of D-JNKI). The i.p. injection of MK-801 (1 mg/Kg) was used as a control compound during this assessment procedure.
The mice were trained the day before and in the morning of the experimental day, in order to reduce the variability between subjects. Both training and test sessions were identical for control and injected mice. […] The mice were placed on the rotarod, which was programmed to accelerate uniformly from 4 to 40 rpm. The latency to falls for each mouse tested was recorded. The results of this assessment using the rotarod method are presented in Table 2 as median latency to fall (measured in seconds).

[2] = Systolic and diastolic blood pressure after D-JNKI injection; type: in vivo, mice; settings: 10 minutes before until 30 minutes after injection
Source text: Using male ICR-CD1 mice (approximately 6 weeks old and weighing in the range of about 18 to 37 g) (Harlan, Inc.), ischemia was provoked by introducing a filament from the common carotid artery into the internal carotid artery and advancing the filament into the arterial circle, thereby occluding the middle cerebral artery. See, e.g., Huang et al., Science, 265:1883-85 (1994); Hara et al., Proc. Natl. Acad. Sci. (USA) 94:2007-12 (1997); each of which is hereby incorporated by reference in its entirety. Regional cerebral blood flow was measured by laser-Doppler flowmetry with a probe fixed on the skull throughout the ischemia and until 10 minutes after reperfusion. Rectal temperature was measured and maintained at 37° C. The animals were sacrificed 48 hours after reperfusion. Serial cryostat sections […] were traced using a computer-microscope system equipped with the Neurolucida program (Microbrightfield, Inc.), and the volumes of the ischemic area and of the whole brain were calculated (blind) with the Neuroexplorer program. Systolic and diastolic blood pressure were measured with an arterial catheter in three additional mice from 10 minutes before the D-JNKI injection until 30 minutes afterwards. […] The Guidelines of the Swiss Federal Veterinary Office were followed in all experiments.

recombinant JNK1α1 = recombinant JNK1α1 (Homo sapiens, UniProt P45983); test: In vitro kinase assay with recombinant JNK1α1; type: biochemical
Procedure: (§1) Cellular extracts were prepared by scraping cells in lysis buffer (20 mM Tris-acetate, 1 mM EGTA, 1% Triton X-100, 10 mM p-nitrophenyl-phosphate, 5 mM sodium pyrophosphate, 10 mM β-glycerophosphate, 1 mM dithiothreitol). 25 μg samples were incubated for 1 hour at room temperature with 1 μg GST-c-Jun (amino acid residues 1-89) and 10 μL glutathione-agarose beads (Sigma). The beads were washed four times and then resuspended in the lysis buffer described above. In vitro kinase assays were then performed using recombinant JNK1α1 and 0.5 μg of a substrate selected from the group consisting of GST-fusion proteins (e.g., GST-Jun and GST-Elk1 fusion proteins), casein and histone (Sigma). Reactions were initiated with 10 mM MgCl2 and 10 μM ATP in the presence of 5 μCi ^33P-ATP, and were incubated for 30 minutes at 30° C. The reaction products were separated by SDS-PAGE, and the gels were dried and then exposed to X-ray films (Kodak).
The terms “P-Jun” and “P-Elk1,” as used herein, refer to the radiolabeled (i.e., phosphorylated with ^33P-ATP) forms of GST-Jun and GST-Elk1 substrates, respectively.

ERK2 = ERK2 (Homo sapiens, UniProt P28482); test: Kinase specificity assay; type: biochemical; settings: 500 μM
Procedure: as §1
(§2) In vitro experiments were performed to determine the specificity of the JNKI peptides in blocking JNK activation. […] The complete list of substrates used in these experiments can be found on the world wide web at www.upstate.com/img/pdf/KinaseProfiler.pdf. […] The substrates for these kinases are ERK2:ERK1; p38:ATF2; p34, pKC, pKA:histone; and caK:caseine. […] For a discussion of other small chemical inhibitors of the Jun N-terminal kinase (JNK), See Bennett et al., Proc. Natl. Acad. Sci. (USA), 98:13681-86 (2001), hereby incorporated by reference in its entirety.

caK = test: Kinase specificity assay; type: biochemical; settings: 500 μM, substrate caseine
Procedure: as §1, §2

p34 = p34 (Homo sapiens, UniProt P06493); test: Kinase specificity assay; type: biochemical; settings: 500 μM, substrate histone
Procedure: as §1, §2

p38 = p38 (Homo sapiens, UniProt Q16539); test: Kinase specificity assay; type: biochemical; settings: 500 μM, substrate ATF2
Procedure: as §1, §2

pKC = test: Kinase specificity assay; type: biochemical; settings: 500 μM, substrate histone
Procedure: as §1
In vitro experiments were performed to determine the specificity of the JNKI peptides in blocking JNK activation. In particular, the effect of these peptides on the activity of 40 different kinases (10 μM peptides, 10 μM ATP) towards their respective substrates was tested. The complete list of substrates used in these experiments can be found on the world wide web at www.upstate.com/img/pdf/KinaseProfiler.pdf. […]

Sequence of recombinant JNK1α1 (P45983 1-384 isoform P45983-2, species assumed): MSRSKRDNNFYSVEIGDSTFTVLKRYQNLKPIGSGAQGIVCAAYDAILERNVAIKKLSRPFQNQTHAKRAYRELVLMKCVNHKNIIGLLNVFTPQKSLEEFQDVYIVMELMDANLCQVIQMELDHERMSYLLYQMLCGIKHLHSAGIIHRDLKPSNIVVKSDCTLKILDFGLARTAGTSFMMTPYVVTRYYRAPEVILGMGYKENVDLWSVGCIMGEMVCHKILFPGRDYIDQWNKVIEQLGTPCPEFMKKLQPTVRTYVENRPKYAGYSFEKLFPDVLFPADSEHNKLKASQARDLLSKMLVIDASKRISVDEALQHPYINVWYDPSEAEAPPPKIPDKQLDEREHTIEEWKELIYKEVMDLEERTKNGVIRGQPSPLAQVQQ
Sequence of p34 (P06493 whole entry): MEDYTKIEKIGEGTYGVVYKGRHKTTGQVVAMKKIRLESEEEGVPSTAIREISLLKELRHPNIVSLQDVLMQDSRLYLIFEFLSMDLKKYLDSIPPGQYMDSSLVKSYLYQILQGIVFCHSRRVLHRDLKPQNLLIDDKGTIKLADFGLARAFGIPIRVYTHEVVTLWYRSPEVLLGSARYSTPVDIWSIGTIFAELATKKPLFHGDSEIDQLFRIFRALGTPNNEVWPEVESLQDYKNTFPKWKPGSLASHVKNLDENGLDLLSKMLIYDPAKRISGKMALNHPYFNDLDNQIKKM
Sequence of ERK2 (P28482 whole entry, species assumed): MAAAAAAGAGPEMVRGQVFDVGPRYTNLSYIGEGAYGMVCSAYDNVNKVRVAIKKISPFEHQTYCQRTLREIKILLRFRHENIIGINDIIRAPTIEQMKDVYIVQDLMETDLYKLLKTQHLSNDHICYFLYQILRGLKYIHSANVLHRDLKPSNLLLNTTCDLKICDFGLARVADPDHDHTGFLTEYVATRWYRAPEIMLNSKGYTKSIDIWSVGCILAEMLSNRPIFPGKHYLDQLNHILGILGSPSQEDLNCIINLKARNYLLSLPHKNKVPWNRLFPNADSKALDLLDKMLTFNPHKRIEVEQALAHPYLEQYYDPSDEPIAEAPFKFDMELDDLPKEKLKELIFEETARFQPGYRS
Sequence of p38 (Q16539 whole entry): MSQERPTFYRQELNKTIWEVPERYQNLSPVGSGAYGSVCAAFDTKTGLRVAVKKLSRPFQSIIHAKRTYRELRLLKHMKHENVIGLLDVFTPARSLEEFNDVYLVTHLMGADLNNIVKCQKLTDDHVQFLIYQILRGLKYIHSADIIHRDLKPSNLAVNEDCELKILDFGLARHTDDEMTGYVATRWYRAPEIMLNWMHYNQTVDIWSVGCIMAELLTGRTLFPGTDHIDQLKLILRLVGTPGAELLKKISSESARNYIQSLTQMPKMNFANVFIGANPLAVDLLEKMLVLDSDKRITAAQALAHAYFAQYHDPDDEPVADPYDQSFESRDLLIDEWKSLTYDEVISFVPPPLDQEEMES

Molecule: fluorescein labeled bovine serum albumin: fluorescein labeled BSA (12 moles fluorescein/mole BSA) used as a control
- entry into cells (βTC-3 cell cultures): did not enter the cells

Molecule: IPSPSVEEPHKHRPTTLRLTTLGAQDS (IPSPSVEEPHKHRPTTLRLTTLGAQDS) [IB2-long]
- efficiency in binding JNK relative to c-Jun or ATF2 (JNK): approximately 100 fold

Molecule: C[C@]12N[C@H](Cc3ccccc31)c1ccccc12 [MK-801, reference compound]
- Median Latency to Fall ([1]; 1 mg/Kg i.p., 1 day): 174 s
- Median Latency to Fall ([1]; 1 mg/Kg i.p., 6 days): 233 s
- Median Latency to Fall ([1]; 1 mg/Kg i.p., 12 days): 292 s
- Median Latency to Fall ([1]; 1 mg/Kg i.p., +3 hours): incapable
- Median Latency to Fall ([1]; 1 mg/Kg i.p., −1 hour): 226 s
- lethality ([1]; 10-fold higher dose of MK-801): killed all the mice
- motor coordination (rotarod), overall [1]: dramatic impairment of motor coordination
- time after which side effects essentially disappear ([1]; lower dose of MK-801 (1 mg/Kg i.p.)): 24 h

Molecule: CC(C)C[C@@H](NC(=O)[C@@H](Cc1ccccc1)NC(=O)[C@H]1CCCN1C(=O)[C@@H](CCC(N)=O)NC(=O)[C@H](NC(=O)[C@H]1CCCN1C(=O)[C@@H](CCCNC(=N)N)NC(=O)[C@@H](CO)NC(=O)[C@@H](CCC(N)=O)NC(=O)[C@@H](CC(=O)O)NC(=O)[C@H](N)[C@H](C)O)C(C)C)C(=O)N[C@H](CC(N)=O)C(=O)N[C@H](CC(C)C)C(=O)N[C@@H](C(=O)N[C@@H](C(=O)N1CCC[C@@H]1C(=O)N[C@H](CCCNC(=N)N)C(=O)N[C@H](CCCCN)C(=O)N1CCC[C@@H]1C(=O)N[C@H](CCCNC(=N)N)C(=O)N1CCC[C@@H]1C(=O)N1CCC[C@@H]1C(=O)N[C@H](CCCNC(=N)N)C(=O)N[C@H](CCCNC(=N)N)C(=O)N[C@H](CCCNC(=N)N)C(=O)N[C@H](CCC(N)=O)C(=O)N[C@H](CCCNC(=N)N)C(=O)N[C@H](CCCNC(=N)N)C(=O)N[C@H](CCCCN)C(=O)N[C@H](CCCCN)C(=O)N[C@H](CCCNC(=N)N)C(=O)NCC(=O)O)[C@H](C)O)[C@H](C)O [D-JNKI, TDQSRPVQPF LNLTTPRKPR PPRRRQR RKKRG] (H-[dT][dD][dQ][dS][dR][dP][dV][dQ][dP][dF][dL][dN][dL][dT][dT][dP][dR][dK][dP][dR][dP][dP][dR][dR][dR][dQ][dR][dR][dK][dK][dR]G-OH)
- change of blood pressure [2]: less than 10%
- Median Latency to Fall ([1]; 15.7 ng icv, 1 day): 302 s
- Median Latency to Fall ([1]; 15.7 ng icv, 6 days): 345 s
- Median Latency to Fall ([1]; 15.7 ng icv, 12 days): 285 s
- Median Latency to Fall ([1]; 15.7 ng icv, +3 hours): 342 s
- Median Latency to Fall ([1]; 15.7 ng icv, −1 hour): 210 s
- Median Latency to Fall ([1]; 157 ng icv, 1 day): 253 s
- Median Latency to Fall ([1]; 157 ng icv, 6 days): 338 s
- Median Latency to Fall ([1]; 157 ng icv, 12 days): 335 s
- Median Latency to Fall ([1]; 157 ng icv, +3 hours): 200 s
- Median Latency to Fall ([1]; 157 ng icv, −1 hour): 260 s
- Median Latency to Fall ([1]; 11 mg/Kg i.p., 1 day): 372 s
- Median Latency to Fall ([1]; 11 mg/Kg i.p., 6 days): 287 s
- Median Latency to Fall ([1]; 11 mg/Kg i.p., 12 days): 418 s
- Median Latency to Fall ([1]; 11 mg/Kg i.p., +3 hours): 221 s
- Median Latency to Fall ([1]; 11 mg/Kg i.p., −1 hour): 204 s
- Median Latency to Fall ([1]; 110 mg/Kg i.p., 1 day): 447 s
- Median Latency to Fall ([1]; 110 mg/Kg i.p., 6 days): 416 s
- Median Latency to Fall ([1]; 110 mg/Kg i.p., 12 days): 325 s
- Median Latency to Fall ([1]; 110 mg/Kg i.p., +3 hours): 266 s
- Median Latency to Fall ([1]; 110 mg/Kg i.p., −1 hour): 276 s
- motor impairment ([1]; at 6 and 15 days following treatment): no sign of motor impairment
- motor coordination (rotarod), overall [1]: unimpaired

Molecule: PGTGCGDTYRPKRPTTLNLFPQVPRSQDT (PGTGCGDTYRPKRPTTLNLFPQVPRSQDT) [IB1-long]
- efficiency in binding JNK relative to c-Jun or ATF2 (JNK): approximately 100 fold

Molecule: CC(C)C[C@H](NC(=O)[C@H](CC(N)=O)NC(=O)[C@H](CC(C)C)NC(=O)[C@@H](NC(=O)[C@@H](NC(=O)[C@@H]1CCCN1C(=O)[C@H](CCCNC(=N)N)NC(=O)[C@H](CCCCN)NC(=O)[C@@H]1CCCN1C(=O)[C@@H](N)CCCNC(=N)N)[C@@H](C)O)[C@@H](C)O)C(=O)N[C@@H](Cc1ccccc1)C(=O)N1CCC[C@H]1C(=O)N[C@@H](CCC(N)=O)C(=O)N[C@H](C(=O)N1CCC[C@H]1C(=O)N[C@@H](CCCNC(=N)N)C(=O)N[C@@H](CO)C(=O)N[C@@H](CCC(N)=O)C(=O)N[C@@H](CC(=O)O)C(=O)N[C@H](C(=O)O)[C@@H](C)O)C(C)C [L-JBD20, RPKRPTTLNL FPQVPRSQDT] (H-RPKRPTTLNLFPQVPRSQDT-OH)
- IC50 (recombinant JNK1α1; JNK targets ATF2, IRS-1, MADD, bcl-xl, each case, data not shown): ~1000 nM
- inhibition of JNK action without the TAT sequence (recombinant JNK1α1; dose response): can inhibit JNK action
- interference with activity of ERK2 (ERK2): did not interfere with the activity
- interference with activity of caK (caK): did not interfere with the activity
- interference with activity of p34 (p34): did not interfere with the activity
- interference with activity of p38 (p38): did not interfere with the activity
- interference with activity of pKC (pKC): did not interfere with the activity

Molecule: N=C(N)NCCC[C@H](NC(=O)[C@H](CCCNC(=N)N)NC(=O)[C@H](CCCNC(=N)N)NC(=O)[C@H](CCC(N)=O)NC(=O)[C@H](CCCNC(=N)N)NC(=O)[C@H](CCCNC(=N)N)NC(=O)[C@H](CCCCN)NC(=O)[C@H](CCCCN)NC(=O)[C@H](CCCNC(=N)N)NC(=O)CN)C(=O)O [L-TAT, reference compound]
- concentration at which the TAT sequence induces nonspecific precipitation of the proteins in the extracts (recombinant JNK1α1): greater than 50 μM
